From article PMC7927014, “Novel Small Molecule Hsp90/Cdc37 Interface Inhibitors Indirectly Target K-Ras-Signaling” (Cancers, 2021)

Key:
Hsp90/Cdc37 [1] = molecular target: T1, Hsp90/Cdc37 (Homo sapiens, UniProt P07900); assay: Hsp90/Cdc37 split Renilla luciferase assay, full length Hsp90 (cell lysate; IC50 and 20 μM validation); type: biochemical; details: MolPort Screening-3, tested concentration of drugs 20 μM
T1 construct: The Hsp90/Cdc37 split Renilla luciferase assay using the full length Hsp90 for the compound screening was described previously; expressed in transfected cells; host or cells: HEK293 EBNA cells, cleared lysates
Experimental: (§1) In the second in silico screening of the FIMM database, we employed the four identified chemical scaffolds (Figure S2B) for the visual inspection of the FIMM compound library. […] All of the purchased compounds were validated in vitro at 20 μM using the split Renilla luciferase assay.
(§2) The Hsp90/Cdc37 split Renilla luciferase assay using the full length Hsp90 for the compound screening was described previously. […] After 48 h, the cells were trypsinized and washed with PBS. The harvested cells were lysed in 1 mL of the 1x lysis buffer provided in the Renilla Luciferase Reporter Assay System Kit from Promega (cat. E2820), and were incubated on ice for 10 min. The cell lysates were then cleared by centrifugation at 13,000× g for 1 min. […] After this, the screening/test compounds or DMSO—as indicated—were added to each well. In total, 5 µL NRL-Hsp90- or NRL-N-Hsp90-lysate was added to each well, one row at a time. Subsequently, the plate was incubated for 5 min at room temperature (RT). […] Just before the reading, 20 µL assay buffer containing 2× Renilla luciferase substrate (coelenterazine) was added. For the FIMM screening, sample wells were read on a PHERAstar plate reader (BMG LABTECH) at a gain level of 4000, after 10 s shaking, using a hypomorph of NRL-Hsp90. For the subsequent validations of the compounds, sample wells with the above-described assay constructs were read using a synergy H1 Hybrid Multi-Mode reader (BioTek) in the luminescence detection mode, as described previously in detail.

Hsp90/Cdc37 [2] = assay: FIMM screening in split Renilla luciferase assay with hypomorphic NRL-Hsp90 construct, 20 μM; type: biochemical
Experimental: as §1, §2

Hsp90α (N-terminal) = molecular target: T2, Hsp90α (N-terminal) (Homo sapiens, UniProt P07900); assay: Hsp90 N-terminal ATP-binding site competition assay (FITC-geldanamycin fluorescence polarization)
T2 construct: purchased BPS Bioscience 50298
Experimental: The reaction was initiated by adding 35 ng/μL purified recombinant Hsp90α, and was incubated at RT with slow shaking for 2 h. All of the reactions were performed in a black, low binding NUNC microtiter plate, included in the kit, and the total reaction volume was 50 μL. The enzyme control was measured without the test compound, and the enzyme background control was measured without the test compound or Hsp90α. […] All of the controls and the blank contained 10% DMSO, as did all of the samples of the test compounds. All of the samples were analyzed as duplicates. […] The blank value was subtracted from all of the other values, and the fluorescence polarization was determined as:(1) mP = ((III − I⊥)/(III+ I⊥)) × 1000 where III is the intensity of the parallel, and I┴ the intensity of the perpendicular polarized light.

K-RasG12V nanoclustering = assay: K-RasG12V nanoclustering-FRET (FLIM-FRET) in HEK cells; type: cell-based; details: 24 h, conglobatin A 2 μM, salinomycin 1.3 μM, 17-AAG 2 μM, CAY10585 10 μM, hit compounds indicated concentrations
Experimental: In total, 80,000 HEK cells were seeded in 12-well plates containing sterilized 16-mm coverslips and 1 mL medium. The next day, the cells were transfected using jetPRIME or FuGENE HD transfection reagent. For the donor fluorophore-only samples, the cells were transfected with 500 ng mGFP-tagged RasG12V plasmid. For the nanoclustering-FRET pair samples, the cells were transfected with both the donor and acceptor constructs, i.e., pmGFP- and pmCherry- RasG12V at a plasmid ratio of 1:3, respectively, and a total of 800 ng plasmids. The next day, the cells were treated with either 0.1% DMSO vehicle control or the indicated concentrations of compounds diluted in DMEM or RPMI medium for 24 h. For the gene silencing studies, the cells were transfected with the indicated amounts of siRNAs, together with the FRET pair constructs. The plasmids and siRNA were diluted in the same jetPRIME transfection buffer, followed by the addition of jetPRIME. […] The lifetime of the mGFP donor fluorophore was measured using a fluorescence microscope (Zeiss AXIO Observer D1) equipped with a fluorescence lifetime imaging attachment (Lambert Instruments), as described previously in detail. The apparent FRET efficiency (Eapp) was calculated as Eapp = (1 − τDA/τD) × 100%, with the measured fluorescence lifetimes τDA of the FRET sample and the τD of the donor-only sample.

MDA-MB-231 cells = assay: 2D cell proliferation (alamarBlue); type: cell-based; details: Homo sapiens, MDA-MB-231, 72 h
Experimental: Per well, 500–700 cells were seeded in 96-well flat bottom culture plates in 100 µL. After 24 h, the cells were treated with 0.1% DMSO vehicle control or test compounds diluted in a medium using a 1:2 dilution-series, starting at 100 µM. The plates were further incubated for 72 h. The cell viability was measured after the addition of 10% alamarBlue reagent per well (cat. no. DAL1100, Thermo Fisher Scientific). The fluorescence intensity (excitation 560 nm and emission 590 nm) was measured after 4 h by the use of a H1 Hybrid Multi-Mode reader.

Hsp90, Hsp70 = assay: Western blotting of Hsp90 and Hsp70 (heat shock response); type: cell-based; details: Western blot, 24 h; four cancer cell lines; 17-AAG 2 μM
Experimental: (§3) The cells in the RIPA buffer were placed on ice for 20 min, and were then sonicated in ice cold water for 5 min. […] Equal amounts of protein were separated by 10% SDS-PAGE, and were then transferred onto a nitrocellulose membrane (cat. no. NBA 083C001EA, Protran) using a wet transfer system (Bio-Rad) or semidry Transferblot Turbo Transfer System (Bio-Rad). After the transfer, the membranes were blocked for 30 min in 5% skimmed milk dissolved in 1× TBST, and then incubated with 1:2000 primary antibodies in 5% BSA in TBST at 4 °C overnight.
(§4) The next day, the membranes were washed three times in TBST for 10 min, and then incubated with secondary antibodies (1:5000) diluted in 5% skimmed milk in TBST for 1 h at RT. […] All of the antigens and molecular weights in kDa are labelled next to the blots on the figures. Uncropped Western blot data are attached as Figure S6.

HIF-1α = assay: Western blotting of HIF-1α in nuclear extracts; type: cell-based; details: Western blot of nuclear extracts, 24 h; K-RasG12V-transfected HEK and MDA-MB-231 cells; conglobatin A 5 or 10 μM, 17-AAG 2 μM
Experimental: as §3, §4

H-RasG12V nanoclustering = assay: H-RasG12V nanoclustering-FRET (FLIM-FRET) in HEK cells; type: cell-based; details: 24 h, conglobatin A 2 μM, salinomycin 1.3 μM, CAY10585 10 μM
Experimental: In total, 80,000 HEK cells were seeded in 12-well plates containing sterilized 16-mm coverslips and 1 mL medium. The next day, the cells were transfected using jetPRIME or FuGENE HD transfection reagent. For the donor fluorophore-only samples, the cells were transfected with 500 ng mGFP-tagged RasG12V plasmid. For the nanoclustering-FRET pair samples, the cells were transfected with both the donor and acceptor constructs, i.e., pmGFP- and pmCherry- RasG12V at a plasmid ratio of 1:3, respectively, and a total of 800 ng plasmids. The next day, the cells were treated with either 0.1% DMSO vehicle control or the indicated concentrations of compounds diluted in DMEM or RPMI medium for 24 h. For the gene silencing studies, the cells were transfected with the indicated amounts of siRNAs, together with the FRET pair constructs. The plasmids and siRNA were diluted in the same jetPRIME transfection buffer, followed by the addition of jetPRIME. After 48 h of transfection, the cells were fixed in 4% paraformaldehyde for 10 to 15 min, before being mounted onto slides with Mowiol 4–88 (cat. no. 81381, Sigma-Aldrich). The lifetime of the mGFP donor fluorophore was measured using a fluorescence microscope (Zeiss AXIO Observer D1) equipped with a fluorescence lifetime imaging attachment (Lambert Instruments), as described previously in detail. The apparent FRET efficiency (Eapp) was calculated as Eapp = (1 − τDA/τD) × 100%, with the measured fluorescence lifetimes τDA of the FRET sample and the τD of the donor-only sample.

Gal3 = assay: Western blotting of galectin-3; type: cell-based; details: Western blot, 24 h; K-RasG12V-transfected HEK and MDA-MB-231 cells
Experimental: The cells were trypsinized, washed with PBS, and lysed in RIPA buffer (cat no. 89900, ThermoFisher Scientific) containing protease and phosphatase inhibitors (cat. no. A32959, ThermoFisher Scientific) and 1 mM phenylmethylsulfonyl fluoride (PMSF). The cells in the RIPA buffer were placed on ice for 20 min, and were then sonicated in ice cold water for 5 min. The lysates were centrifuged at 4 °C, and their protein was quantified using a BCA kit (cat. no. 23225, ThermoFisher Scientific). Equal amounts of protein were separated by 10% SDS-PAGE, and were then transferred onto a nitrocellulose membrane (cat. no. NBA 083C001EA, Protran) using a wet transfer system (Bio-Rad) or semidry Transferblot Turbo Transfer System (Bio-Rad). After the transfer, the membranes were blocked for 30 min in 5% skimmed milk dissolved in 1× TBST, and then incubated with 1:2000 primary antibodies in 5% BSA in TBST at 4 °C overnight. […]
The next day, the membranes were washed three times in TBST for 10 min, and then incubated with secondary antibodies (1:5000) diluted in 5% skimmed milk in TBST for 1 h at RT. […] The protein bands were detected with a ChemiDoc MP instrument (Bio-Rad) after treatment with an ECL reagent (cat. no. 170-5061, BioRad). […]

C=CCNC1=C2C[C@@H](C)C[C@H](OC)[C@H](O)[C@@H](C)/C=C(\C)[C@H](OC(N)=O)[C@@H](OC)/C=C\C=C(/C)C(=O)NC(=CC1=O)C2=O [17-AAG, 17-allylamino-17-demethoxy-geldanamycin, reference compound]
normalized RLU (Hsp90/Cdc37 [1]; RLU normalized to DMSO (=1.00)): 0.91
Average RLU (Hsp90/Cdc37 [1]; average of 3 wells (DMSO 248028)): 225640 RLU
normalized RLU (FIMM Screening-1) (Hsp90/Cdc37 [2]; DMSO = 1.00): 0.89
normalized RLU (FIMM Screening-2, scaffold based) (Hsp90/Cdc37 [2]; DMSO = 1.00): 0.89
Average RLU (FIMM Screening-1) (Hsp90/Cdc37 [2]; mean of 3 wells, DMSO 50019): 44367 RLU
Average RLU (FIMM Screening-2, scaffold based) (Hsp90/Cdc37 [2]; mean of 3 wells, DMSO 51006): 45379 RLU
competition with FITC-geldanamycin (ATP-pocket binding, polarization signal) (Hsp90α (N-terminal)): significantly reduced the signal
K-RasG12V nanoclustering-FRET (K-RasG12V nanoclustering): same selectivity
IC50 (MDA-MB-231 cells): 1000 nM
induction of Hsp90 or Hsp70 expression (heat shock response) (Hsp90, Hsp70): increase in Hsp90 and, in particular, Hsp70
nuclear levels of HIF-1α (HIF-1α): decreased the nuclear levels of HIF-1α

COC(=O)c1ccc(O)c(NC(=O)COc2ccc(C34CC5CC(CC(C5)C3)C4)cc2)c1 [CAY10585]
K-RasG12V nanoclustering-FRET (K-RasG12V nanoclustering): selectively decreased
H-RasG12V nanoclustering-FRET (H-RasG12V nanoclustering): not H-RasG12V nanoclustering-FRET
Gal3 levels (Gal3): decreased the Gal3 levels

CC[C@@H](C(=O)[C@@H](C)[C@@H](O)[C@H](C)[C@@H]1O[C@@H]([C@@H](CC)C(=O)O)CC[C@@H]1C)[C@H]1O[C@]2(C=C[C@@H](O)[C@]3(CC[C@@](C)([C@H]4CC[C@](O)(CC)[C@H](C)O4)O3)O2)[C@H](C)C[C@@H]1C [salinomycin]
K-RasG12V nanoclustering-FRET (K-RasG12V nanoclustering): blocks K-RasG12V-
H-RasG12V nanoclustering-FRET (H-RasG12V nanoclustering): not H-RasG12V-nanoclustering
